Test results published in patent publication US11241440B2, “Dihydrooxadiazine compounds for treating infections and cancer” (VALORALIA I MÁS D, SL, priority 2016, dated 2022).
Where two headings read alike, the source gives them in different places.

Columns and labels:
N. carnea = test: Kirby-Bauer disk diffusion susceptibility test; assay type: cell-based, Nocardia carnea; conditions: N. carnea; 100 μg/disc; zone of inhibition
N. cyriacigeorgica = test: Kirby-Bauer disk diffusion susceptibility test; assay type: cell-based; conditions: N. cyriacigeorgica; 100 μg/disc; zone of inhibition
T. pulmonis = test: Kirby-Bauer disk diffusion susceptibility test; assay type: cell-based, Tsukamurella pulmonis; conditions: T. pulmonis; 100 μg/disc; zone of inhibition
M. chelonae = test: Kirby-Bauer disk diffusion susceptibility test; assay type: cell-based; conditions: M. chelonae; 100 μg/disc; zone of inhibition
M. abscessus = test: Kirby-Bauer disk diffusion susceptibility test; assay type: cell-based, Mycobacterium abscessus; conditions: M. abscessus; 100 μg/disc; zone of inhibition
S. epidermidis = test: Kirby-Bauer disk diffusion susceptibility test; assay type: cell-based, Staphylococcus epidermidis; conditions: S. epidermidis; 100 μg/disc; zone of inhibition
S. aureus = test: Kirby-Bauer disk diffusion susceptibility test; assay type: cell-based, Staphylococcus aureus; conditions: S. aureus; 100 μg/disc; zone of inhibition
B. cereus = test: Kirby-Bauer disk diffusion susceptibility test; assay type: cell-based, Bacillus cereus; conditions: B. cereus
A. baumannii = test: Kirby-Bauer disk diffusion susceptibility test; assay type: cell-based, Acinetobacter baumannii; conditions: A. baumannii; 100 μg/disc; zone of inhibition
[1] = tested on: all species tested (pathogenic bacteria); assay type: cell-based
Aspergillus flavus = test: EUCAST broth dilution antifungal susceptibility test (MIC); assay type: cell-based; conditions: 100% inhibition, 24 hours at 35° C., dilution range 64 to 0.12 mg/l
Description: (§1) Filamentous fungi and yeasts strains, from clinical origin, were supplied by Microbiology Service from The Princess Hospital, Madrid. They are detailed in Table III. Filamentous fungi and yeast cells suspensions in distilled water was prepared from a culture of 24-48 h, depending on species, in Sabouraud agar. Each suspension was adjusted to a fixed size inoculum of 1-5×10^8 CFU/ml with a spectrophotometer (Ferraro, M J National Committee for Clinical Laboratory Standards. 2000). Antifungal susceptibility tests were developed following the standardized methodology detailed by the European Committee on Antimicrobial Susceptibility Testing (EUCAST) documents 7.2 (method for the determination of broth dilution minimum inhibitory concentrations of antifungal agents for yeasts EDef 7.2) and 9.2 (Method for the determination of broth dilution minimum inhibitory concentrations of antifungal agents for conidia forming foulds). The compound was dissolved in DMSO and diluted with RPMI plates with 2% glucose to pH 7 with MOPS buffer. […] Plates were inoculated with a yeast suspension or filamentous fungal spores (1-5×10^5 cls/ml). The results were evaluated after 24 hours incubation at 35° C. and absorbance reading at 530 nm.

Aspergillus fumigatus = test: as above; assay type: cell-based; conditions: 100% inhibition, 24 hours at 35° C., dilution range 64 to 0.12 mg/l
Description: as §1

Aspergillus terreus = test: as above; assay type: cell-based; conditions: 100% inhibition, 24 hours at 35° C., dilution range 64 to 0.12 mg/l
Description: as §1

Candida parapsilosis = test: as above; assay type: cell-based; conditions: 50% inhibition, 24 hours at 35° C., dilution range 64 to 0.12 mg/l
Description: as §1

Scedosporium prolificans = test: as above; assay type: cell-based; conditions: 100% inhibition, 24 hours at 35° C., dilution range 64 to 0.12 mg/l
Description: as §1

HIV virus (NL4.3-Ren) = test: microbe, parasite or virus in culture; assay type: cell-based; conditions: for Viral replication (%): relative to DMSO control, cells not given
[2] = tested on: HIV virus non-recombinant wild type (NL4.3); test: Inhibition of non-recombinant wild type HIV; assay type: cell-based; conditions: Human immunodeficiency virus 1
[3] = tested on: recombinant herpesvirus FTKGF; test: Fluorescence antiviral assay in Vero cells; assay type: cell-based, herpes simplex 1 virus; conditions: 0.01 MOI, 48 hours
Description: In the antiviral assay a special culture plate for fluorescence assays has been used, cultivated with Vero cells (200,000 cells/ml) and infected with the recombinant herpesvirus FTKGF at 0.01 MOI (Multiplicity of infection). For the standard curve (inhibition curve pattern), increasing concentrations of a known inhibitor of HSV infection, the phosphonoacetic acid (PAA), from 0 to 200 μg/ml, were used. The compound was tested at concentrations of […] over the virus. After 48 hours, the fluorescence intensity of FTKGF (reduction in fluorescence levels) in the plate reader Synergy HT Microplate Reader was measured.

PRV-NIA3 = assay type: cell-based, porcine pseudorabies virus (PRV); conditions: compound 2 μM
[4] = tested on: XGF-N (PRG-NIA3 deficient in the envelope glycoprotein gG); assay type: cell-based, porcine pseudorabies virus (PRV)
[5] = tested on: equine herpes virus type 1 (EHV-1); test: Viral titer reduction; assay type: cell-based; conditions: 2 μM
MCF7 = test: MTT assay; assay type: cell-based; conditions: Homo sapiens, 48 hours
CAL33 = test: MTT assay; assay type: cell-based
PC3 = test: MTT assay; assay type: cell-based; conditions: Homo sapiens, PC-3, 48 hours
HOS = test: MTT assay; assay type: cell-based; conditions: Homo sapiens, 48 hours
HSV-1, strain F = conditions: compound 2 μM
[6] = tested on: FTKGF (deficient in thymidine kinase protein); conditions: compound 2 μM
HSV-2, strain G = conditions: compound 2 μM
[7] = tested on: all tumor cell lines tested; test: MTT assay, tumor cell lines of Table VII taken together

Structure (SMILES): CCCCCC1=NN(C(=O)CCO)OC(CCCCC)C1 (stereo not drawn) [Compound, 1-(4,6-dipentyl-5,6-dihydro-2H-1,2,3-oxadiazin-2-yl)-3-hydroxypropan-1-one]
- Activity (mm), 100 μg/disc (N. carnea): 48-50 mm
- Activity (mm), 100 μg/disc (N. cyriacigeorgica): 35-38 mm
- Activity (mm), 100 μg/disc (T. pulmonis): 49-52 mm
- Activity (mm), 100 μg/disc (M. chelonae): 63 mm
- Activity (mm), 100 μg/disc (M. abscessus): 56 mm
- Activity (mm), 100 μg/disc (S. epidermidis): 16-18 mm
- Activity (mm), 100 μg/disc (S. aureus): 20-22 mm
- kind of antibiotic activity (B. cereus): bacteriostatic
- Activity (mm), 100 μg/disc (B. cereus; 100 μg/disc, zone of inhibition): 37-40 mm
- Activity (mm), 100 μg/disc (A. baumannii): 10-12 mm
- kind of antibiotic activity [1]: bactericidal
- MIC (minimum inhibitory concentration) (Aspergillus flavus): 1
- MIC (minimum inhibitory concentration) (Aspergillus fumigatus): 0.5
- MIC (minimum inhibitory concentration) (Aspergillus terreus): 0.25
- MIC (minimum inhibitory concentration) (Candida parapsilosis): 0.5
- MIC (minimum inhibitory concentration) (Scedosporium prolificans): 0.5
- Viral replication (%) (HIV virus (NL4.3-Ren); 0.19 μM): 45%
- Viral replication (%) (HIV virus (NL4.3-Ren); 0.39 μM): 14%
- Viral replication (%) (HIV virus (NL4.3-Ren); 0.78 μM): 3%
- Viral replication (%) (HIV virus (NL4.3-Ren); 1.56 μM): 1%
- Viral replication (%) (HIV virus (NL4.3-Ren); 3.12 μM): 0%
- Viral replication (%) (HIV virus (NL4.3-Ren); 6.25 μM): 0%
- Viral replication (%) (HIV virus (NL4.3-Ren); 12.5 μM): 0%
- Viral replication (%) (HIV virus (NL4.3-Ren); 25 μM): 0%
- Viral replication (%) (HIV virus (NL4.3-Ren); 50 μM): 0%
- Viral replication (%) (HIV virus (NL4.3-Ren); 100 μM): 0%
- IC50 (HIV virus (NL4.3-Ren); Human immunodeficiency virus 1, MT2, read-out: IC50 nM): 243 nM
- IC50 (HIV virus (NL4.3-Ren); Human immunodeficiency virus 1, PBMC, read-out: IC50 nM): 362 nM
- IC50 [2]: 333 nM
- inhibition at 0.2 µM ([3]; 200 nM): 60%
- inhibition at 0.4 µM ([3]; 400 nM): 92%
- reduction of the titer (PRV-NIA3): 0.5 logarithms
- reduction of the titer [4]: 1 logarithm
- reduction of the titer [5]: 1 logarithm
- IC50 (MCF7): 127 nM
- concentration at which inhibition is obtained (CAL33): 10 nM
- optimal concentration of inhibition (CAL33): ≥ 50 nM
- IC50 (CAL33; Homo sapiens, CAL-33, 48 hours): 42.8 nM
- IC50 (PC3): 217 nM
- IC50 (HOS): 170 nM
- reduction of the titer (HSV-1, strain F): 1.5 logarithms
- reduction of the titer [6]: 2.5 logarithms
- reduction of the titer (HSV-2, strain G): 3 logarithms
- antitumoral activity ([7]; all tumor cell lines tested): exhibited activity in all tumor cell lines tested
- concentration at which inhibition began to be relevant ([7]; rest of the cell lines (other than CAL33 and T98G)): 100 nM
